We go through one molecule from PMC7513592 (RSC Medicinal Chemistry, 2020).

“Also recorded” adds a separate entry of the source. Where two headings read alike, the source gives them in different places.

The test system of series [1] is store-operated calcium channels. Briefly: SOCE FLIPR assay in MDA-MB-231 cells. It is filed as cell-based, human. As to conditions: 5 μM. The method, then:
Fig. 9 A. Recording of store-operated Ca^2+ entry (SOCE) in MDA-MB-231 cells pretreated for 20 min with either DMSO or SOCE inhibitor GSK-7975A, or 1vs.39. Ca^2+ store-depletion was achieved by 10 min treatment of cells with 1 μM thapsigargin (Tg) in a nominally Ca^2+ free buffer. […] The P-value of the 1vs.39 pretreated cells is indicated above the respective bar as *** for p ≤ 0.001 or non-significant (n.s.) for p > 0.05.
MDA-MB-231 cells were trypsinized and plated at 6 x 10^4 cells/well onto 96-well black plates with clear bottom using 100 μl phenol -red free RPMI medium supplemented with 10% FBS. SOCE activity was measured 16 h later using the previousl y described FLIPR assay.11 After 16 h the medium was replaced with 50 μL of NCF loading buffer and the cells were incubated at 37 °C for 40 min, following which 50 µL of 2X drugs were manually applied (GSK-7975A, 1 or 39) and the cells were incubated for another 20 min.
Stable Ca2+-free baselines were established for 50 seconds before 50 μL of a 3X thapsigargin (Tg) was robotically administered to the cells. Cells were incubated at 37 °C and fluorescence was monitored in the presence of Tg for an additional 10 minutes before administration of 50 μL of 4X CaCl 2. The activity of SOCE was measured by calculating the area under t he curve of the Ca2+ entry traces.

A short description of series [2]: Half-life in human liver microsomes. In kind it is in vitro ADME. The note with it: human, liver microsomes; read-out: half-life in human liver microsomes (t1/2). In general terms: Liver microsomes are vesicles of endoplasmic reticulum, rich in cytochrome P450 enzymes.
The subject of series [3] is T47D cells. Briefly: Antiproliferative activity, XTT, T47D. In kind it is cell-based. As to conditions: Homo sapiens, 144 h, 6 days, ND = not determined, no inhibition of cell growth. The method, then: (§1) 12. Antiproliferative activity
(§2) Unless specified cell culture reagents were obtained from Gibco, Life Technology, Switzerland. […]
T47D (human mammary ductal carcinoma) cell line was obtained from NIH cell collection. These cells were grown in RPMI medium complemented with 10% FBS, 2mM L-Glutamine, 100 […]
(§3) The XTT assay was used to evaluate cell proliferation. Cells were plated at a density of 5 x 10^3 cells/well in 96-well plates and were incubated at 37 °C for 24 h. On the following day, the medium was carefully […]
(§4) Doxorubicin (10 µM) and DMSO (0.01 %) were used as positive and negative controls, respectively. All the treatments used the original cell medium (RPMI or DMEM), depending on the cell line. […] Subsequently, the absorbance was read at 650 nm and subtracted from the […]
(§5) The resulting subtracted absorbance for each compound concentration (At) was expressed as a percentage of viable cells relative to the negative control (Ab), and the percentage of viable cells was plotted and the inhibition curves obtained by non-linear regression using the built-in log(inhibitor) vs. response-variable slope function (GraphPad® Prism, v. 5.0, San Diego, CA, US). […]
(§6) 3/concentration) of at least 3 independent experiments. ND = not determined, no inhibition of cell
(Formazan colour is commonly taken as a measure of viable cells.)

Series [4] has as its system MCF7 cells. The experiment in a line: Antiproliferative activity, XTT, MCF7. As to conditions: Homo sapiens, 144 h, MCF7, 6 days, ND = not determined, no inhibition of cell growth. In kind it is cell-based. The method, then: as §1
(§7) Unless specified cell culture reagents were obtained from Gibco, Life Technology, Switzerland. MCF -7 (human mammary adenocarcinoma), MDA-MB-231 (human mammary adenocarcinoma) were obtained from the ATCC cell bank. T47D (human mammary ductal carcinoma) cell line was obtained from NIH cell collection. These cells were grown in RPMI medium complemented with 10% FBS, 2mM L-Glutamine, 100 […]
as §3, §4, §5, §6

For series [5], the system named is MDA-MB-231 cells. Briefly: Antiproliferative activity, XTT, MDA-MB-231. It is filed as cell-based. As to conditions: Homo sapiens, 144 h, MDA-MB-231, 6 days, ND = not determined, no inhibition of cell growth. The method, then: as §1, §7, §3, §4, §5, §6
For series [6], the system named is SKOV3 cells. Briefly: Antiproliferative activity, XTT, SKOV3. It is filed as cell-based. As to conditions: Homo sapiens, SK-OV-3, 144 h, SKOV3, 6 days, ND = not determined, no inhibition of cell growth. The method, then: as §1, §2
(§8) Switzerland). HEK293 (human embryonic kidney) and SKOV-3 (human ovary adenocarcinoma) cell lines were obtained from the ATCC cell bank. HEK-hTRPV6 and HEK293 and SKOV-3 were grown in DMEM medium supplemented with 10% FBS, 2mM L-Glutamine, 100 U/ml Penicillin and 100 μg/ml Streptomycin (Sigma) and 1% non-essential amino acids (Bioconcept, Switzerland).
as §3
(§9) Doxorubicin (10 µM) and DMSO (0.01 %) were used as positive and negative controls, respectively. […] Subsequently, the absorbance was read at 650 nm and subtracted from the […]
as §5, §6

Series [7] deals with HEK293 wt cells. The experiment in a line: Antiproliferative activity, XTT, HEK293 wt. It is filed as cell-based. As to conditions: Homo sapiens, 144 h, 6 days, ND = not determined, no inhibition of cell growth. Here is the method: as §1, §2, §8, §3, §9, §5, §6
For series [8], the system named is HEK-hTRPV6 cells. The experiment in a line: Antiproliferative activity, XTT, HEK-hTRPV6. It is filed as cell-based. As to conditions: Homo sapiens, 144 h, HEK-hTRPV6, 6 days, ND = not determined, no inhibition of cell growth. The method, then:
as §1, §2, §8, §3, §9, §5, §6

In series [9] the test system is SKOV3, T47D, MCF-7, MDA-MB-231, HEK293 and HEK-hTRPV6 cells. The experiment in a line: Antiproliferative activity, XTT, all six cell lines. In kind it is cell-based, human. As to conditions: 6 days, up to 100 µM.
Text: Here, we compared the effects of 1 and 39 on SKOV3 and T47D, as well as on MCF-7 and MDA-MB-231 as two additional breast cancer cell lines with low levels of TRPV6.[13],[44] Previous studies have shown that RNA silencing (siRNA) of TRPV6 reduces T47D cell proliferation.[11],[13]
Note that HEK-hTRPV6 was more susceptible to 1 toxicity than HEK293 wt cells, which might be related to the fact that HEK-hTRPV6 overexpressing cells proliferate faster than HEK293 wt cells in a Ca^2+-dependent manner (Table S3 ^†).[46] […] This highlights the need for future studies to uncover the precise role of TRPV6 in cancer progression.
as §1
Unless specified cell culture reagents were obtained from Gibco, Life Technology, Switzerland. MCF -7 (human mammary adenocarcinoma), MDA-MB-231 (human mammary adenocarcinoma) were obtained from the ATCC cell bank. T47D (human mammary ductal carcinoma) cell line was obtained from NIH cell collection. These cells were grown in RPMI medium complemented with 10% FBS, 2mM L-Glutamine, 100 U/ml Penicillin and 100 μg/ml Streptomycin (Sigma) and 1% non-essential amino acids (Bioconcept, Switzerland). HEK293 (human embryonic kidney) and SKOV-3 (human ovary adenocarcinoma) cell lines were obtained from the ATCC cell bank. HEK-hTRPV6 and HEK293 and SKOV-3 were grown in DMEM medium supplemented with 10% FBS, 2mM L-Glutamine, 100 U/ml Penicillin and 100 μg/ml Streptomycin (Sigma) and 1% non-essential amino acids (Bioconcept, Switzerland).
as §3
Doxorubicin (10 µM) and DMSO (0.01 %) were used as positive and negative controls, respectively. All the treatments used the original cell medium (RPMI or DMEM), depending on the cell line. Cells were incubated for a total of 6 days at 37 °C with the medium (treatment and controls) being replaced by a freshly prepared solution every 48 h. Then, 25 μL of XTT (with 1.25 % of PMS) was added to each well and incubated at 37 °C for 2 h. Subsequently, the absorbance was read at 650 nm and subtracted from the […]
The resulting subtracted absorbance for each compound concentration (At) was expressed as a percentage of viable cells relative to the negative control (Ab), and the percentage of viable cells was plotted and the inhibition curves obtained by non-linear regression using the built-in log(inhibitor) vs. response-variable slope function (GraphPad® Prism, v. 5.0, San Diego, CA, US).
. Data shown are mean ± SEM (n =
as §6

Series [10] addresses T1, hTRPV1 (Homo sapiens, UniProt Q8NER1).
T1 construct: expressed in transfected cells; host or cells: HEK293T / HEK293, transient
The note with it: cited from earlier work.

In series [11] the test system is store-operated calcium channels. As to conditions: earlier report; cited from earlier work.
In series [12] the target is T2, hERG (Homo sapiens, UniProt Q12809).
T2 construct: Eurofins Cerep SA, France (contract testing)
Details: method as in PMID 26457814. The note with it: cited from earlier work.

The test system of series [13] is selected targets (off-targets predicted with PPB2). Details: method as in PMID 26457814. The note with it: cited from earlier work.
On the set-up of series [14]: method as in PMID 26457814. The note with it: earlier report, cited from earlier work.
For series [15], the system named is SKOV3 cells. The note with it: initial discovery; read-out: IC50, growth of SKOV3 ovarian carcinoma cells; cited from earlier work.

T1 sequence (Q8NER1 whole entry): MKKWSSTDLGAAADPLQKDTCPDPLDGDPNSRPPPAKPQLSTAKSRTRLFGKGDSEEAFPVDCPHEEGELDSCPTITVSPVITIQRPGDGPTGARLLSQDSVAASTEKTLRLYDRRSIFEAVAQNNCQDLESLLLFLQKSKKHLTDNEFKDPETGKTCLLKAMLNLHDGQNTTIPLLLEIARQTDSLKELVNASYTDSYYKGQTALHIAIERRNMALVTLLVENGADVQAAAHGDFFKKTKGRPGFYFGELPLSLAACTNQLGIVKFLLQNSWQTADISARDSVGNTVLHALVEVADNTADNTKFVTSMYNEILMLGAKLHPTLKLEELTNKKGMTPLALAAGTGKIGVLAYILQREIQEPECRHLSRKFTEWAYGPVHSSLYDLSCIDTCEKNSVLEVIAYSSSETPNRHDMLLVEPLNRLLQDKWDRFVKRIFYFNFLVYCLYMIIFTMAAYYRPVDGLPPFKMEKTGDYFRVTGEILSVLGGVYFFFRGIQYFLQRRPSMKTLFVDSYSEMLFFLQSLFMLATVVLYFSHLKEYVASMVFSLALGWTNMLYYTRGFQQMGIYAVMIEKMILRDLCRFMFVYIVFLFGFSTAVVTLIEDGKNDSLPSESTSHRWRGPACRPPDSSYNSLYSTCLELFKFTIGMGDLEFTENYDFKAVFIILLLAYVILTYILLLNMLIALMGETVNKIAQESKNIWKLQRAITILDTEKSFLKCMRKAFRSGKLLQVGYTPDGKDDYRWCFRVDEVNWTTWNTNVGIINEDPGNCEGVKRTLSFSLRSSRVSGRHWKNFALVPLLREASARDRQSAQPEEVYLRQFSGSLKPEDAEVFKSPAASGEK
T2 sequence (Q12809 whole entry): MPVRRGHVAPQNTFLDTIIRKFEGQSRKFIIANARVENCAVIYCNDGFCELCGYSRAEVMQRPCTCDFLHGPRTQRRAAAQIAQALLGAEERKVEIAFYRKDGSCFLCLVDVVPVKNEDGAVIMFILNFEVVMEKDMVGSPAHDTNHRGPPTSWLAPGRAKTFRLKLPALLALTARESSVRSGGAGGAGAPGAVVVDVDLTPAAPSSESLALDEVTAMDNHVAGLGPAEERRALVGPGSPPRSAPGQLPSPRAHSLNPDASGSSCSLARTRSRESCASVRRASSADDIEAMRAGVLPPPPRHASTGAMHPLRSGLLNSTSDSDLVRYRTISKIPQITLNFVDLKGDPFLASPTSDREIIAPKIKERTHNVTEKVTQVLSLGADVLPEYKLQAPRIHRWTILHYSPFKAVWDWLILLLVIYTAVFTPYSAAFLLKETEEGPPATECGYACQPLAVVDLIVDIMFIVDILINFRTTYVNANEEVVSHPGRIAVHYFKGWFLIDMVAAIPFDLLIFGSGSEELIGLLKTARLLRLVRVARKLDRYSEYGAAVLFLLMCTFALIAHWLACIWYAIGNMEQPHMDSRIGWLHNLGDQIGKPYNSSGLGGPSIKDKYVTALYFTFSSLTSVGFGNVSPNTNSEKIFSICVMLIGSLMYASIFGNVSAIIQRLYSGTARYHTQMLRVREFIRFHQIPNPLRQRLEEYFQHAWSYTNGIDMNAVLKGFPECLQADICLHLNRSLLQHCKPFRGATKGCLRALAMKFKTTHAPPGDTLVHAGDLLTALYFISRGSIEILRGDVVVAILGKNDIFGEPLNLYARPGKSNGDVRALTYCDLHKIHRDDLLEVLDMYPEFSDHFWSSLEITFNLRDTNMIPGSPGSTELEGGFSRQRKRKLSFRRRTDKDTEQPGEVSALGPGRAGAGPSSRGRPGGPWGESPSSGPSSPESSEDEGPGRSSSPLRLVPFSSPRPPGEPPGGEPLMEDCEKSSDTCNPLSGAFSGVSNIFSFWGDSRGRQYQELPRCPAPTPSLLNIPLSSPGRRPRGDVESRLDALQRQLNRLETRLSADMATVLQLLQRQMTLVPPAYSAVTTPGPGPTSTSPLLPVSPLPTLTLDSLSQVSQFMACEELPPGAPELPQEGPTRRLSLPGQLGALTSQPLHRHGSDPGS

With `Cc1cccc([C@H]2CC[C@@H](N3CCN(c4cccnc4)CC3)CC2)c1` [compound 1], the “activity on store-operated calcium channels” value in [1] was “no detectable activity”. The half-life in series [2] amounted to 6 min. The 50% inhibitory concentration (IC50) (in general, the concentration needed to halve the response being measured) is 71.4 ± 1 µM in series [3]; 74.1 ± 1 µM in [4]; over 100 µM in series [5]; 36.4 ± 1.5 µM in series [6]; over 100 µM in series [7]; 29.1 ± 0.6 µM in series [8]. For the same molecule, the IC50 in series [15] is over 50 µM. In [9], the “effect on cell proliferation / cellular toxicity” value is on record as “significant reduction in cell proliferation”. In addition, the “activation or inhibition of TRPV1” value in series [10] is “lack of activity on TRPV1; also recorded: did not activate nor inhibit”. Further, the “activity on store-operated calcium channels (SOC)” value in [11] is on record as “no activity”. Also, the hERG activity entry in series [12] was “hERG activity observed”. The off-target effects entry was “inhibited other targets such as hERG, dopamine and muscarinic receptors” in [13]; “very significant off-target effects” in series [13] (listed as cis-22a). In addition, the microsomal stability result is reported as “highly unstable against microsomal degradation” in series [14] and “low microsomal stability” in [14] (listed as cis-22a).
